Several values for one entry are separate records, joined by “and”; a condition that tells them apart may be missing. Equal values may be shown once.
Assays:
SphK1 = target: T1, SphK1 (Homo sapiens, UniProt Q9NYA1); assay: S1P formation by SphK1 (UPLC, Supplementary Fig 1e); type: biochemical; conditions: acetyl-CoA 0-50 mM
T1 construct: purchased Cayman 10348
Protocol: We confirmed S1P formation through SphK1 enzymatic activity measurements as previously described[11] using a UPLC (Ultra performance liquid chromatography) system (Waters). […] After pre-incubation, 1 mM ATP (Amresco, 0220) was added the mixture, and it was incubated at 37 °C for 1 h. The […] reactions were stopped by adding 53 μl of ethanol, and centrifuged at 15,493×g for 5 min. Thirty microliter of the supernatant was then transferred to a sampling glass vial and 5 μl was applied onto a UPLC system for analysis. S1P formation was followed as phosphorylation of (7-nitro-2-1,3-benzoxadiazol-4-yl)-d-erythro (NBD)-sphingosine (Avanti Polar Lipids) to NBD-S1P. Quantification was achieved by comparison with NBD-S1P (Avanti Polar Lipids) standards.

tumors = test system: tumors; parameters: method as in PMID 27043542, PMID 24566153; conditions: cited from earlier work
APP/PS1 mice = assay: ELISA of Aβ40 and Aβ42 in cortex (Fig 6e); type: in vivo, mouse; parameters: Ab 40 (ELISA, Figure 6e) / Ab 42 (ELISA, Figure 6e): unit not given beside the values
Protocol: For measurement of Aβ40 and Aβ42, we used commercially available ELISA kits (Invitrogen, KHB3481, and KHB3441). Cortex of mice was homogenized in buffer containing […] guanidine. ELISA was then performed for Aβ40 and Aβ42 according to the manufacturer’s instructions.
(§1) Transgenic mouse lines over-expressing the hAPP695swe (APP) and presenilin-1M146V (PS1) mutations were originated from GlaxoSmithKline (Harlow, UK)[32] and maintained as described previously. We purchased 5×FAD mice from Jackson Labs (Stock number. 34840-JAX). Because APP/PS1 and 5xFAD mice show sex differences in disease progression, we used only male mice. To examine possible therapeutic effect of N-AS and aspirin in APP/PS1 mice, the N-AS (30 mg kg^−1, Sigma-Aldrich, 01912) was injected daily s.c. for 8 weeks to 7-months-old APP/PS1 mice until the age of 9 months, and aspirin (2 mg kg^−1, Sigma-Aldrich, A5376)[33] was administrated orally to 7-months-old APP/PS1 mice for 8 weeks. Also, to confirm possible therapeutic efficacy of N-AS in 5×FAD, the N-AS (30 mg kg^−1, Sigma-Aldrich, 01912) was injected daily s.c. for 4 weeks to 3-months-old 5×FAD mice until the age of 4 months. Block randomization method was used to allocate the animals to experimental groups. To eliminate the bias, we were blinded in experimental progress such as data collection and data analysis. Mice were housed at temperature of 22 °C and a 12 h day/12 h night cycle with free access to tap water and food pellets. All protocols were approved by the Kyungpook National University Institutional Animal Care and Use Committee.

5×FAD mice = assay: ThioS Aβ plaque area and plaque morphometry (Supplementary Fig 8b,c); type: in vivo, mouse
Protocol: Thioflavin S (Sigma-Aldrich) staining was carried out according to previously described procedures. We used 6E10 (mouse, 1:100, Signet, SIG39300), anti-20G10 (mouse, 1:1000, provided by D. R. Howlett, GlaxoSmithKline, Harlow, Essex, UK) for Aβ42, anti-G30 (rabbit, 1:1000, provided by D. R. Howlett) for Aβ40, SMA (mouse, 1:400, Sigma-Aldrich, A2547), AT8 (mouse, 1:500, Thermo Fisher Scientific, MN1020), Caspase-3 (mouse, 1:200, Novus Biologicals, NB100-56708), ac-S565 (rabbit, 1:100), COX2 (mouse, 1:250, Thermo Fisher Scientific, 35-8200), Iba1 (rabbit, 1:500, Wako, 019-19941 and goat, Abcam, ab5076), NeuN (mouse, 1:500, Millipore, MAB177), GFAP (rabbit, 1:500, Dako, N1506 and chicken, 1:500, Abcam, ab4674), and Lamp1 (mouse, 1:200, Abcam, ab24170). The sections were analyzed with a laser-scanning confocal microscope (FV3000; Olympus) or with a BX51 microscope (Olympus). MetaMorph software (Molecular Devices) was used to quantification. Three-dimensional reconstruction of microglia was recorded and analyzed using IMARIS software (Bitplane)[11]. For the analysis of age-dependent microglial COX2^+ CX3CR1^+ cells in WT and APP/PS1 mice, COX2 (rabbit, 1:100, Abcam, ab15191) and CX3CR1 (mouse, 1:100, BioLegend, 149008) antibody were used and the images were acquired on Alexa 488 and APC Channel with performed using Operetta CLS and Analysis Software 4.5 (Perkin-Elmer).
as §1

[1] = APP/PS1 + N-AS, individual animals

T1 sequence (Q9NYA1 whole entry): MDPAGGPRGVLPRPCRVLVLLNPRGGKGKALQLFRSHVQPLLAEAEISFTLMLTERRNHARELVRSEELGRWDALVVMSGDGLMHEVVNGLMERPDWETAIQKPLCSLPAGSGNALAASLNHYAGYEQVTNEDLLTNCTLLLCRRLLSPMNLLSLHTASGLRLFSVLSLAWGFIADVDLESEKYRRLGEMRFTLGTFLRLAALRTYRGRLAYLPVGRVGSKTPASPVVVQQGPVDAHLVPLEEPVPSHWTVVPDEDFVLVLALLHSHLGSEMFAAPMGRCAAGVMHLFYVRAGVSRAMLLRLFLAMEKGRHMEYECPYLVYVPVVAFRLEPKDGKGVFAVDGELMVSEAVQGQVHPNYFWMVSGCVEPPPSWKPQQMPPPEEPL

SMILES | S1P formation by SphK1, in words (SphK1) | apoptosis of tumors (tumors) | Ab 40 (ELISA, Figure 6e) (APP/PS1 mice; [1]) | Ab 42 (ELISA, Figure 6e) (APP/PS1 mice; [1]) | Aβ levels by ELISA of Aβ40 and Aβ42 (APP/PS1 mice; N-AS vs vehicle APP/PS1) | Aβ plaques by size, <25mM (5×FAD mice; 5xFAD + N-AS, sFig 8c) | Aβ plaques by size, >50mM (5×FAD mice; 5xFAD + N-AS, sFig 8c) | Aβ plaques by size, 25-50mM (5×FAD mice; 5xFAD + N-AS, sFig 8c, in % (unit assumed)) | Aβ plaque deposit and Aβ plaque phagocytosis (5×FAD mice; 5×FAD, N-AS 30 mg kg^-1 daily s.c. 4 weeks)
CC(=O)SCCNC(=O)CCNC(=O)[C@H](O)C(C)(C)COP(=O)(O)OP(=O)(O)OC[C@H]1O[C@@H](n2cnc3c(N)ncnc32)[C@H](O)[C@@H]1OP(=O)(O)O [Acetyl-CoA, acetyl-CoA] | inhibited S1P formation in a concentration dependent fashion | – | – | – | – | – | – | – | –
CCCCCCCCCCCCC/C=C/[C@@H](O)[C@H](CO)NC(C)=O [N-AS, N-((2S,3R,E)-1,3-Dihydroxyoctadec-4-en-2-yl)acetamide] | – | induce apoptosis of tumors | 1042.75 and 892.25 and 1044 and 676.5 and 692.5 and 668.75 and 689.75 and 1124 | 921.303 and 908.818 and 878.061 and 828.152 and 906.333 and 894.303 and 859.97 and 905.879 | significantly lower Aβ levels | 92.2364 and 92.245 and 94.982 and 89.4908 and 95.585 and 93.6135 | 5.395 and 4.6761 and 5.546 and 5.244 and 3.581 and 5.111 | 5.341 and 4.808 and 4.956 and 5.7255 and 3.9859 and 4.882 | similarly improved AD pathology of 5×FAD mice
